± gives the expanded uncertainty stated by the source.
Assay: xn = mol fraction of the nth substance listed
Details: Liquid, Vibrating tube method

CCCCCCCCCC [decane] + CCCCCCC
Details	mass density [kg/m3]
313.16 K, 1000 kPa, x2 = 0.0531	713.67 ± 0.41
313.16 K, 1000 kPa, x2 = 0.2594	706.37 ± 0.41
313.16 K, 2000 kPa, x2 = 0.0531	714.44 ± 0.41
313.16 K, 2000 kPa, x2 = 0.2594	707.17 ± 0.42
313.16 K, 3000 kPa, x2 = 0.0531	715.27 ± 0.42
313.16 K, 3000 kPa, x2 = 0.2594	707.97 ± 0.42
313.16 K, 4000 kPa, x2 = 0.0531	716.08 ± 0.42
313.16 K, 4000 kPa, x2 = 0.2594	708.78 ± 0.43
313.16 K, 5000 kPa, x2 = 0.0531	716.94 ± 0.43
313.16 K, 5000 kPa, x2 = 0.2594	709.65 ± 0.43
313.16 K, 6000 kPa, x2 = 0.0531	717.67 ± 0.43
313.16 K, 6000 kPa, x2 = 0.2594	710.5 ± 0.44
313.16 K, 7000 kPa, x2 = 0.0531	718.51 ± 0.44
313.16 K, 7000 kPa, x2 = 0.2594	711.35 ± 0.44
313.16 K, 8000 kPa, x2 = 0.0531	719.34 ± 0.44
313.16 K, 8000 kPa, x2 = 0.2594	712.2 ± 0.44
313.16 K, 9000 kPa, x2 = 0.0531	720.13 ± 0.44
313.16 K, 9000 kPa, x2 = 0.2594	713.05 ± 0.45
313.16 K, 10000 kPa, x2 = 0.0531	721 ± 0.45
313.16 K, 10000 kPa, x2 = 0.2594	713.88 ± 0.45
313.16 K, 10990 kPa, x2 = 0.0531	721.8 ± 0.45
313.16 K, 10990 kPa, x2 = 0.2594	714.7 ± 0.46
313.16 K, 12000 kPa, x2 = 0.0531	722.62 ± 0.46
313.16 K, 12000 kPa, x2 = 0.2594	715.51 ± 0.47
313.16 K, 13000 kPa, x2 = 0.0531	723.44 ± 0.46
313.16 K, 13000 kPa, x2 = 0.2594	716.3 ± 0.47
313.16 K, 14000 kPa, x2 = 0.0531	724.26 ± 0.47
313.16 K, 14000 kPa, x2 = 0.2594	717.1 ± 0.48
313.16 K, 15000 kPa, x2 = 0.0531	725.05 ± 0.47
313.16 K, 15000 kPa, x2 = 0.2594	717.87 ± 0.48
313.16 K, 16000 kPa, x2 = 0.0531	725.84 ± 0.48
313.16 K, 16000 kPa, x2 = 0.2594	718.64 ± 0.49
313.16 K, 17000 kPa, x2 = 0.0531	726.57 ± 0.49
313.16 K, 17000 kPa, x2 = 0.2594	719.39 ± 0.49
313.16 K, 18000 kPa, x2 = 0.0531	727.29 ± 0.49
313.16 K, 18000 kPa, x2 = 0.2594	720.16 ± 0.5
313.16 K, 19000 kPa, x2 = 0.0531	728.02 ± 0.5
313.16 K, 19000 kPa, x2 = 0.2594	720.88 ± 0.5
313.16 K, 20000 kPa, x2 = 0.0531	728.71 ± 0.5
313.16 K, 20000 kPa, x2 = 0.2594	721.61 ± 0.51
313.16 K, 21000 kPa, x2 = 0.0531	729.39 ± 0.51
313.16 K, 21000 kPa, x2 = 0.2594	722.32 ± 0.52
313.16 K, 22000 kPa, x2 = 0.0531	730.07 ± 0.51
313.16 K, 22000 kPa, x2 = 0.2594	723.02 ± 0.52
313.16 K, 23000 kPa, x2 = 0.0531	730.67 ± 0.52
313.16 K, 23000 kPa, x2 = 0.2594	723.68 ± 0.53
313.16 K, 24000 kPa, x2 = 0.0531	731.27 ± 0.53
313.16 K, 24000 kPa, x2 = 0.2594	724.32 ± 0.54
313.16 K, 25000 kPa, x2 = 0.0531	731.84 ± 0.53
313.16 K, 25000 kPa, x2 = 0.2594	724.92 ± 0.54
313.17 K, 1000 kPa, x2 = 0.952	671.13 ± 0.43
313.17 K, 2000 kPa, x2 = 0.952	672.16 ± 0.44
313.17 K, 3000 kPa, x2 = 0.952	673.18 ± 0.44
313.17 K, 4000 kPa, x2 = 0.952	674.17 ± 0.45
313.17 K, 5000 kPa, x2 = 0.952	675.18 ± 0.45
313.17 K, 6000 kPa, x2 = 0.952	676.18 ± 0.46
313.17 K, 7000 kPa, x2 = 0.952	677.15 ± 0.46
313.17 K, 8000 kPa, x2 = 0.952	678.12 ± 0.47
313.17 K, 9000 kPa, x2 = 0.952	679.08 ± 0.48
313.17 K, 10000 kPa, x2 = 0.952	680.03 ± 0.48
313.17 K, 10990 kPa, x2 = 0.952	680.95 ± 0.49
313.17 K, 12000 kPa, x2 = 0.952	681.86 ± 0.5
313.17 K, 13000 kPa, x2 = 0.952	682.77 ± 0.5
313.17 K, 14000 kPa, x2 = 0.952	683.65 ± 0.51
313.17 K, 15000 kPa, x2 = 0.952	684.52 ± 0.52
313.17 K, 16000 kPa, x2 = 0.952	685.39 ± 0.52
313.17 K, 17000 kPa, x2 = 0.952	686.24 ± 0.53
313.17 K, 18000 kPa, x2 = 0.952	687.08 ± 0.54
313.17 K, 19000 kPa, x2 = 0.952	687.9 ± 0.54
313.17 K, 20000 kPa, x2 = 0.952	688.71 ± 0.55
313.17 K, 21000 kPa, x2 = 0.952	689.52 ± 0.56
313.17 K, 22000 kPa, x2 = 0.952	690.29 ± 0.57
313.17 K, 23000 kPa, x2 = 0.952	691.05 ± 0.57
313.17 K, 24000 kPa, x2 = 0.952	691.82 ± 0.58
313.17 K, 25000 kPa, x2 = 0.952	692.57 ± 0.59
313.18 K, 1000 kPa, x2 = 0.5219	695.19 ± 0.42
313.18 K, 1000 kPa, x2 = 0.777	681.87 ± 0.43
313.18 K, 2000 kPa, x2 = 0.5219	696.01 ± 0.42
313.18 K, 2000 kPa, x2 = 0.777	682.77 ± 0.43
313.18 K, 3000 kPa, x2 = 0.5219	696.84 ± 0.43
313.18 K, 3000 kPa, x2 = 0.777	683.7 ± 0.43
313.18 K, 4000 kPa, x2 = 0.5219	697.74 ± 0.43
313.18 K, 4000 kPa, x2 = 0.777	684.64 ± 0.44
313.18 K, 5000 kPa, x2 = 0.5219	698.6 ± 0.44
313.18 K, 5000 kPa, x2 = 0.777	685.58 ± 0.45
313.18 K, 6000 kPa, x2 = 0.5219	699.5 ± 0.44
313.18 K, 6000 kPa, x2 = 0.777	686.52 ± 0.45
313.18 K, 7000 kPa, x2 = 0.5219	700.44 ± 0.45
313.18 K, 7000 kPa, x2 = 0.777	687.47 ± 0.46
313.18 K, 8000 kPa, x2 = 0.5219	701.28 ± 0.45
313.18 K, 8000 kPa, x2 = 0.777	688.4 ± 0.46
313.18 K, 9000 kPa, x2 = 0.5219	702.17 ± 0.46
313.18 K, 9000 kPa, x2 = 0.777	689.32 ± 0.47

Source: the NIST ThermoML archive (doi:10.1016/j.jct.2011.08.016)
